The text below walks through data of patent US6977262B2, “Dihydropyrazolopyridine compounds and pharmaceutical use thereof” (Mitsubishi Pharma Corporation, priority 2001, dated 2005).

Where only a bound is given, the exact number is not on record here.

By melting point is commonly meant the temperature, or range, at which the solid turns liquid.

As to `N#CC1=C(c2ccccc2)Nc2n[nH]cc2C1c1cccc2nsnc12` (stereo not shown) [Example 162, 4-(2,1,3-Benzothiadiazol-4-yl)-5-cyano-4,7-dihydro-6-phenyl-2H-pyrazolo[3,4-b]pyridine], the melting point is 258 °C.

The compound `COc1ccccc1C1=C(C#N)C(c2cccc3nsnc23)c2c[nH]nc2N1` (stereo not shown) [Example 163, 4-(2,1,3-Benzothiadiazol-4-yl)-5-cyano-4,7-dihydro-6-(2-methoxyphenyl)-2H-pyrazolo[3,4-b]pyridine] gave a melting point of 231 °C.

On to `COc1cccc(C2=C(C#N)C(c3cccc4nsnc34)c3c[nH]nc3N2)c1` (stereo not shown) [Example 164, 4-(2,1,3-Benzothiadiazol-4-yl)-5-cyano-4,7-dihydro-6-(3-methoxyphenyl)-2H-pyrazolo[3,4-b]pyridine], for which the melting point was 220 °C.

Consider `COc1ccc(C2=C(C#N)C(c3cccc4nsnc34)c3c[nH]nc3N2)cc1` (stereo not shown) [Example 165, 4-(2,1,3-Benzothiadiazol-4-yl)-5-cyano-4,7-dihydro-6-(4-methoxyphenyl)-2H-pyrazolo[3,4-b]pyridine], for which the melting point worked out at 238 °C.

Take `N#CC1=C(c2ccncc2)Nc2n[nH]cc2C1c1cccc2nonc12` (stereo not shown) [Example 166, 4-(2,1,3-Benzoxadiazol-4-yl)-5-cyano-4,7-dihydro-6-(pyridin-4-yl)-2H-pyrazolo[3,4-b]pyridine]: the melting point is 236 °C.

In the case of `N#CC1=C(c2cccc3ccccc23)Nc2n[nH]cc2C1c1cccc2nonc12` (stereo not shown) [Example 169, 4-(2,1,3-Benzoxadiazol-4-yl)-5-cyano-4,7-dihydro-6-(naphthalen-1-yl)-2H-pyrazolo[3,4-b]pyridine], the melting point came to 213 °C.

For `N#CC1=C(c2ccco2)Nc2n[nH]cc2C1c1cccc2nonc12` (stereo not shown) [Example 170, 4-(2,1,3-Benzoxadiazol-4-yl)-5-cyano-6-(furan-2-yl)-4,7-dihydro-2H-pyrazolo[3,4-b]pyridine], the melting point was 241 °C.

As for `N#CC1=C(c2cccs2)Nc2n[nH]cc2C1c1cccc2nonc12` (stereo not shown) [Example 171, 4-(2,1,3-Benzoxadiazol-4-yl)-5-cyano-4,7-dihydro-6-(thiophen-2-yl)-2H-pyrazolo[3,4-b]pyridine], the melting point turned out to be 230 °C.

With `N#CC1=C(c2ccc3ccccc3c2)Nc2n[nH]cc2C1c1cccc2nonc12` (stereo not shown) [Example 172, 4-(2,1,3-Benzoxadiazol-4-yl)-5-cyano-4,7-dihydro-6-(naphthalen-2-yl)-2H-pyrazolo[3,4-b]pyridine], the melting point is 228 °C.

Consider `N#CC1=C(c2ccco2)Nc2n[nH]cc2C1c1cccc2nonc12` (stereo not shown) [Example 173, 4-(2,1,3-Benzoxadiazol-4-yl)-5-cyano-6-(furan-2-yl)-4,7-dihydro-2H-pyrazolo[3,4-b]pyridine], for which the melting point came to 237 °C.

Compound `N#CC1=C(c2ccsc2)Nc2n[nH]cc2C1c1cccc2nonc12` (stereo not shown) [Example 174, 4-(2,1,3-Benzoxadiazol-4-yl)-5-cyano-4,7-dihydro-6-(thiophen-3-yl)-2H-pyrazolo[3,4-b]pyridine] returned a melting point of 242 °C.

For `N#CC1=C(c2cc3ccccc3o2)Nc2n[nH]cc2C1c1cccc2nonc12` (stereo not shown) [Example 175, 6-(Benzo[b]furan-2-yl)-4-(2,1,3-benzoxadiazol-4-yl)-5-cyano-4,7-dihydro-2H-pyrazolo[3,4-b]pyridine], the melting point is over 270 °C.

As for `CC1=C(C#N)C(c2cccc3nonc23)c2c[nH]nc2N1` (stereo not shown) [Example 176, 4-(2,1,3-Benzoxadiazol-4-yl)-5-cyano-4,7-dihydro-6-methyl-2H-pyrazolo[3,4-b]pyridine], the melting point is 212 °C.

For the compound `CCCCC1=C(C#N)C(c2cccc3nonc23)c2c[nH]nc2N1` (stereo not shown) [Example 177, 4-(2,1,3-Benzoxadiazol-4-yl)-6-butyl-5-cyano-4,7-dihydro-2H-pyrazolo[3,4-b]pyridine], the melting point worked out at 200 °C.

`CCCC1=C(C(=O)OCC)C(c2cccc(C)c2Cl)c2c[nH]nc2N1` (stereo not shown) [Example 178, Ethyl 4-(2-chloro-3-methylphenyl)-4,7-dihydro-6-propyl-2H-pyrazolo[3,4-b]pyridine-5-carboxylate] displayed a melting point of 198 to 200 °C.

Compound `CCCC1=C(C(=O)OCC)C(c2cccc(C#N)c2Cl)c2c[nH]nc2N1` (stereo not shown) [Example 180, Ethyl 4-(2-chloro-3-cyanophenyl)-4,7-dihydro-6-propyl-2H-pyrazolo[3,4-b]pyridine-5-carboxylate] yielded a melting point of 213 to 215 °C.

Consider `CCCC1=C(C(=O)OCC)C(c2cccc(Br)c2Br)c2c[nH]nc2N1` (stereo not shown) [Example 181, Ethyl 4-(2,3-dibromophenyl)-4,7-dihydro-6-propyl-2H-pyrazolo[3,4-b]pyridine-5-carboxylate], for which the melting point was 180 to 183 °C (dec.).

As to `CCCC1=C(C(=O)OCC)C(c2cccc(C#N)c2Br)c2c[nH]nc2N1` (stereo not shown) [Example 183, Ethyl 4-(2-bromo-3-cyanophenyl)-4,7-dihydro-6-propyl-2H-pyrazolo[3,4-b]pyridine-5-carboxylate], the melting point was 210 to 212 °C (dec.).

As to `CCCC1=C(C#N)C(c2cccc(C#N)c2Cl)c2c[nH]nc2N1` (stereo not shown) [Example 184, 4-(2-Chloro-3-cyanophenyl)-5-cyano-4,7-dihydro-6-propyl-2H-pyrazolo[3,4-b]pyridine], the melting point was over 250 °C.

Compound `CCCC1=C(C#N)C(c2cccc([N+](=O)[O-])c2Cl)c2c[nH]nc2N1` (stereo not shown) [Example 185, 4-(2-Chloro-3-nitrophenyl)-5-cyano-4,7-dihydro-6-propyl-2H-pyrazolo[3,4-b]pyridine] yielded a melting point of 234 to 235 °C.

For the compound `CCCC1=C(C#N)C(c2cccc([N+](=O)[O-])c2Br)c2c[nH]nc2N1` (stereo not shown) [Example 189, 4-(2-Bromo-3-nitrophenyl)-5-cyano-4,7-dihydro-6-propyl-2H-pyrazolo[3,4-b]pyridine], the melting point is 250 to 255 °C (dec.).

For the compound `CCCC1=C(C(=O)OCC)C(c2cccc(C)c2OC)c2c[nH]nc2N1` (stereo not shown) [Example 190, Ethyl 4,7-dihydro-4-(2-methoxy-3-methylphenyl)-6-propyl-2H-pyrazolo[3,4-b]pyridine-5-carboxylate], the melting point fell in the range of 220 to 222 °C.

On to `CCCC1=C(C(=O)OCC)C(c2cccc(C#N)c2OC)c2c[nH]nc2N1` (stereo not shown) [Example 191, Ethyl 4-(3-cyano-2-methoxyphenyl)-4,7-dihydro-6-propyl-2H-pyrazolo[3,4-b]pyridine-5-carboxylate], for which the melting point was 220 to 222 °C.

Take `CCC1=C(C#N)C(c2ccccc2[N+](=O)[O-])c2c[nH]nc2N1` (stereo not shown) [Example 192, 5-Cyano-6-ethyl-4,7-dihydro-4-(2-nitrophenyl)-2H-pyrazolo[3,4-b]pyridine]: the melting point was 228 to 230 °C (dec.).

Compound `CCC1=C(C#N)C(c2cccc(Cl)c2Cl)c2c[nH]nc2N1` (stereo not shown) [Example 193, 5-Cyano-4-(2,3-dichlorophenyl)-6-ethyl-4,7-dihydro-2H-pyrazolo[3,4-b]pyridine] registered a melting point of over 300 °C.

On to `CCC1=C(C#N)C(c2ccccc2OC)c2c[nH]nc2N1` (stereo not shown) [Example 194, 5-Cyano-6-ethyl-4,7-dihydro-4-(2-methoxyphenyl)-2H-pyrazolo[3,4-b]pyridine], for which the melting point was in the range of 230 to 232 °C.

Compound `CCC1=C(C#N)C(c2cccc(C#N)c2Cl)c2c[nH]nc2N1` (stereo not shown) [Example 195, 4-(2-Chloro-3-cyanophenyl)-5-cyano-6-ethyl-4,7-dihydro-2H-pyrazolo[3,4-b]pyridine] yielded a melting point of over 300 °C.

The compound `CCC1=C(C#N)C(c2ccccc2Cl)c2c[nH]nc2N1` (stereo not shown) [Example 197, 4-(2-Chlorophenyl)-5-cyano-6-ethyl-4,7-dihydro-2H-pyrazolo[3,4-b]pyridine] returned a melting point of over 300 °C.

As for `CCC1=C(C#N)C(c2cccc(C#N)c2Br)c2c[nH]nc2N1` (stereo not shown) [Example 198, 4-(2-Bromo-3-cyanophenyl)-5-cyano-6-ethyl-4,7-dihydro-2H-pyrazolo[3,4-b]pyridine], the melting point is over 300 °C.

`CCC1=C(C#N)C(c2ccccc2Br)c2c[nH]nc2N1` (stereo not shown) [Example 199, 4-(2-Bromophenyl)-5-cyano-6-ethyl-4,7-dihydro-2H-pyrazolo[3,4-b]pyridine]: the melting point is 250 to 253 °C (dec.).

`CCCC1=C(C#N)C(c2cccc(C(F)(F)F)c2Cl)c2c[nH]nc2N1` (stereo not shown) [Example 201, 4-(2-Chloro-3-trifluoromethylphenyl)-5-cyano-4,7-dihydro-6-propyl-2H-pyrazolo[3,4-b]pyridine] gave a melting point of over 250 °C.

The compound `N#CC1=C(c2ccccc2)Nc2n[nH]cc2C1c1cccc(C(F)(F)F)c1Cl` (stereo not shown) [Example 202, 4-(2-Chloro-3-trifluoromethylphenyl)-5-cyano-4,7-dihydro-6-phenyl-2H-pyrazolo[3,4-b]pyridine] showed a melting point of over 250 °C.

In turn, `CC(C)C1=C(C#N)C(c2ccccc2Cl)c2c[nH]nc2N1` (stereo not shown) [Example 203, 4-(2-Chlorophenyl)-5-cyano-4,7-dihydro-6-isopropyl-2H-pyrazolo[3,4-b]pyridine] showed a melting point of over 250 °C.

The compound `CCCC1=C(C(=O)OCC)C(c2ccccc2Cl)c2cnn(C(=O)OC(C)(C)C)c2N1` (stereo not shown) [Example 204, Ethyl 1-tert-butoxycarbonyl-4-(2-chlorophenyl)-4,7-dihydro-6-propyl-1H-pyrazolo[3,4-b]pyridine-5-carboxylate] registered a melting point of 112 to 116 °C.

`CCCC1=C(C(=O)OCC)C(c2ccccc2Cl)c2cn(C(=O)OC(C)(C)C)nc2N1` (stereo not shown) [Example 205, Ethyl 2-tert-butoxycarbonyl-4-(2-chlorophenyl)-4,7-dihydro-6-propyl-2H-pyrazolo[3,4-b]pyridine-5-carboxylate] yielded a melting point of 144 to 147 °C.

On to `CCCC1=C(C(=O)OCC)C(c2ccccc2Cl)c2cn(C(=O)OC)nc2N1` (stereo not shown) [Example 207, Ethyl 4-(2-chlorophenyl)-4,7-dihydro-2-methoxycarbonyl-6-propyl-2H-pyrazolo[3,4-b]pyridine-5-carboxylate], for which the melting point lay within 141 to 143 °C.

`CCCC1=C(C(=O)OCC)C(c2ccccc2Cl)c2cnn(C(=O)OCc3ccccc3)c2N1` (stereo not shown) [Example 208, Ethyl 1-benzyloxycarbonyl-4-(2-chlorophenyl)-4,7-dihydro-6-propyl-1H-pyrazolo[3,4-b]pyridine-5-carboxylate]: the melting point came out at 80 °C.
